Data on 62 compounds can be found in a melting point compilation (Tetko et al.; mined from patent text by program, amines drawn as free bases though some values may be those of a salt).

In general, melting point refers to the temperature, or range, at which the solid turns liquid. `COc1ccc(N2CCN(C(=O)CC3C=Cc4ccccc43)CC2)cc1` (configuration not stated) returned a melting point of 123 to 125 °C. Compound `Fc1cccc(CCc2nnc(-c3ccnc(NCCCc4ccccc4)c3)o2)c1` gave a melting point of 91 to 92 °C. With `O=c1[nH]c(=O)n(CCCCBr)c2ncccc12`, the melting point was in the range of 139 to 141 °C. Consider `CSc1ccc(C(=O)C(=C(N)C(F)(F)F)c2ccc(F)cc2)cc1`, for which the melting point was 122 to 124 °C. The value for `NC1(c2cccc(Br)c2)CC1` was 135 to 137 °C.

With `C=C(C)COc1ccc(C(=O)C=Cc2ccc(F)cc2)c2oc3ccccc3c(=O)c12`, the melting point fell in the range of 135 to 137 °C. Regarding `C=C(Cn1ccnc1)c1ccccc1O`, the melting point lay within 139 to 141 °C. `CS(=O)(=O)N(CCCl)N(S(C)(=O)=O)S(C)(=O)=O`: the melting point lay within 154 to 155 °C.

In turn, `CSc1cc(CBr)cc(S(N)(=O)=O)c1Cc1ccccc1` gave a melting point of 149 to 150 °C. `COc1ccc(-c2c3c(cc4ccc(OC)c(OC)c24)C(=O)NC3)cc1` returned a melting point of 258 to 260 °C.

Take `Fc1ccc(-c2ccn(C3CC4CCC(C3)N4)c2-c2ccncc2)cc1` (configuration not stated): the melting point fell in the range of 204 to 205 °C.

On to `CC(=O)Nc1ccc(OC(F)(F)F)cc1Br`, for which the melting point is 123 °C.

`Cc1cc2c(cc1F)C(C)(C)CCC2(C)C` displayed a melting point of 90 to 91.8 °C. `COC(=O)c1scc(C)c1NC(=S)N1CCN(c2ncnc3cc(OC)c(OC)cc23)CC1` had a melting point of 113 to 116 °C. For the compound `CN(Cc1ccc(NC(=O)C2=Cc3cc(-c4ccc(C(F)(F)F)cc4)ccc3S(=O)(=O)CC2)cc1)C1CCOCC1`, the melting point fell in the range of 270 to 272 °C. The value for `CCOC(=O)C(=O)NCC(=O)C(C)(C)C` was 82 to 85 °C; that for `O=C(NCc1ccc(Cl)cc1)c1cn2c3c(cc(CN4CCOCC4)cc3c1=O)OC(c1ccc(O)cc1)C2` (configuration not stated) was above 260 °C. `COC(=O)c1ccc([C@H]2CCN(C(=O)OC(C)(C)C)C[C@@H]2O)cc1` (racemic) had a melting point of 146 °C. Turning to `Cc1ncc(C#N)c(Nc2ccc3[nH]ccc3c2C)c1I`, the melting point lay in the range of 222 to 223 °C. The value for `Cn1ccc(Nc2ccc([N+](=O)[O-])cc2[N+](=O)[O-])n1` was 150 °C; that for `CCN(CC)P(N)(=O)N(c1ccc(S(=O)(=O)c2ccccc2)cc1)c1ccc(S(=O)(=O)c2ccccc2)cc1` (configuration not stated) was 115 to 130 °C. In turn, `NS(=O)(=O)c1cccc(-c2cc(-c3nc(-c4ccc(F)c(F)c4)cc(C(F)(F)F)n3)ccn2)c1` showed a melting point of 234 °C.

The compound `COc1ccc(C(=O)CC(C)(C)C(=O)O)cc1OC` yielded a melting point of 114 to 116 °C. `CC(C)(C)c1cc(C=O)c2c(c1O)CCCC2` gave a melting point of 193 to 194 °C. For `CCCCCCCCCCSc1ccc2c3c(cccc13)C(=O)N(CC(=O)O)C2=O`, the melting point was 137 to 140 °C.

For the compound `Cc1ccc([C@@H]2C[C@H]3C=C(c4n[nH]c(-c5ccc(F)cc5)c4-c4ccncc4)CCN3C2)cc1`, the melting point is 222 to 225 °C. Compound `CC(C)Cn1c(=O)n(C)c(=O)c2c(Sc3ccc(N)cn3)c(Cc3cccc4ccccc34)sc21` showed a melting point of 208 to 209 °C. Take `CC(C)(C)c1ccc(CNC(=O)NCc2ccc(NS(C)(=O)=O)c(Cl)c2)cc1`: the melting point lay in the range of 60 to 61 °C. With `Cc1ccccc1-n1c(C=Cc2ccccc2F)nc2nccnc2c1=O`, the melting point was above 250 °C. In turn, `O=Cc1ccc(OC2CCCC2)c(O)c1Br` registered a melting point of 107 to 109 °C.

In turn, `CC(C)OC(=O)c1nc2ccc(OCCCN3CCC(OC(c4ccccc4)c4ccccc4)CC3)nn2n1` displayed a melting point of 126 to 127 °C.

`Cc1cc(C(=O)CCc2cc(-c3ccc(C(F)(F)F)cc3)nn2Cc2ccccc2)ccc1OC(C)(C)C(=O)O` registered a melting point of 55 °C. The result for `O=S(=O)(CCl)Nc1ccnn1-c1c(Cl)cc(C(F)(F)F)cc1Cl` reads 63 to 66 °C; that for `CC(C)c1cc(OCCOCc2ccccc2)cc2c1C(=O)N(CCl)S2(=O)=O`, 101 to 102 °C. As to `Nc1c(-c2ccccc2O)c2ccccc2[nH]c1=O`, the melting point is 235 to 237 °C. `O=C(O)c1cccnn1` registered a melting point of 156 to 158 °C. With `O=C(NCc1cccnc1)c1cc2ccnc(Cl)c2[nH]1`, the melting point lay within 189 to 191 °C. Regarding `C#CCSc1nc(=O)n(CC#C)cc1F`, the melting point was determined as 135 °C. In turn, `Cc1ccc(S(=O)(=O)OC(=O)c2cccc(C(=O)OS(=O)(=O)c3ccc(C)cc3)c2)cc1` displayed a melting point of 172 to 178 °C. As for `CC(=O)OC1CSC(Oc2ccc(-c3ccncc3)nc2Cl)C(OC(C)=O)C1OC(C)=O` (configuration not stated), the melting point was 179 °C. In turn, `O=S(=O)(c1ccccc1)n1c2ccc(C=Cc3ccccc3)cc2c2c(Cl)ccnc21` came in with a melting point of 216 to 218 °C. `COC(=O)c1cc(CCC2CNc3nc(NC(=O)C(C)(C)C)nc(O)c3C2)cn1[Si](C(C)C)(C(C)C)C(C)C` (configuration not stated) gave a melting point of 202 to 204 °C. The value for `CCOc1cc2c3c(c4cc(OCC)c(OCC)cc4c2cc1OCC)C(=O)C=CC3=O` was 188 to 190 °C; that for `COc1cc(OCC(F)(F)C(F)F)nc(Oc2cc(C(F)(F)F)nn2C)c1` was 73 to 74 °C. `COc1ccc2nc(COc3ccc(CC4SC(=O)NC4=O)cc3)n(C)c2c1` (configuration not stated) gave a melting point of 267 to 271 °C. `COc1cc(OC)cc(-c2cc(=O)c3ccc(OCC4CO4)cc3o2)c1` (configuration not stated): the melting point was in the range of 181 to 182 °C. Consider `O=[N+]([O-])c1ccc(-c2nc[nH]c2-c2ccc([N+](=O)[O-])cc2)cc1`, for which the melting point came to 294 °C. The value for `COc1ccc(Cl)cc1C1(O)C(=O)Nc2ccc(Br)cc21` (configuration not stated) was 245 to 247 °C; that for `COc1ccc(C2(C#Cc3cccc(-c4nc(C)no4)c3)CCCC(=O)C2)cc1OC1CCCC1` (configuration not stated) was 122 to 123 °C; that for `CCCCOc1c(NC(C)(C)CC)c(=O)c1=O` was 56 to 57 °C. The compound `CC(C)(C)OC(=O)N1CCN(CCc2ccc(F)cc2)CC1` registered a melting point of 68 to 70 °C. The compound `CCOC(=O)COC1CCN(C(=O)[C@H](C)NC(=O)c2ccc(C(N)=NO)cc2)CC1` displayed a melting point of 212 to 213 °C. The result for `c1cn(CCCc2ccc(OCc3coc(-c4ccoc4)n3)cc2)cn1` reads 85 to 87 °C.

On to `c1cncc(NC2CCNCC2)c1`, for which the melting point lay in the range of 127 to 129 °C.

The compound `OCc1ccc(-c2nn(Cc3ccccc3)c3ccccc23)o1` returned a melting point of 108 to 109 °C.

In turn, `O=c1cc(-c2ccccc2)oc2c(CN3CCN(CCO)CC3)c(O)c(O)c(O)c12` yielded a melting point of 192 °C. The value for `Cn1cc(C(=O)O)c(=O)c2c3cc(F)c(N4CCCC4)cc3ncc21` was 365 °C; that for `CCC(C)N(C)C(=O)c1cc(-c2ccccc2F)c2sccc2c1` (configuration not stated) was 89 °C.

For `Cc1c(C(O)Cc2ccccc2)cc(I)[nH]c1=O` (configuration not stated), the melting point lay within 166 to 167 °C.

`CCn1cc(C(=O)O)c(=O)c2cc(F)c(N3CCNC(c4cccs4)C3)cc21` (configuration not stated): the melting point was 232 to 234 °C. Regarding `CSc1cc(C=O)nn1C`, the melting point lay within 47 to 48 °C. In turn, `O=C(OCC1=CCN(Cc2c[nH]c3cccnc23)CC1)c1ccccc1` returned a melting point of 126 °C.
